From patent US20240374631A1, “A COMPOSITION FOR IMPROVING GUT MICROBIOTA, BEHAVIOURAL PATTERN, ALPHA-SYNUCLEIN LEVELS, SLEEP PATTERN AND/OR SERUM MELATONIN” (GN Corporation Co Ltd, priority 2021, published 2024)

Test system: fecal metabolome
Assay: Fecal metabolome analysis (GC-MS peak height, PCA, OPLS-DA) in STAM model of NASH
Type: in vivo, C57BL/6J mice

CCCc1nc2c(C)cc(-c3nc4ccccc4n3C)cc2n1Cc1ccc(-c2ccccc2C(=O)O)cc1 [Telmisartan]
Peak height after normalization, 2-Aminobutyric acid-2TMS (Difference): 17954.52
Peak height after normalization, 2-Hydroxyisobutyric acid-2TMS (Difference): 133880.36
Peak height after normalization, 3-Aminoglutaric acid-3TMS (Difference): 8627.53
Peak height after normalization, 3-Hydroxybutyric acid-2TMS (Difference): −4608.17
Peak height after normalization, 5-Aminovaleric acid-3TMS (Difference): 26394.02
Peak height after normalization, Glutamic acid-3TMS (Difference): 382709.41
Peak height after normalization, Glutamine-3TMS (Difference): 30745.13
Peak height after normalization, Glycine-3TMS (Difference): 109331.29
Peak height after normalization, Hypoxanthine-2TMS (Difference): 23680.72
Peak height after normalization, Lactic acid-2TMS (Difference): −35605.88
Peak height after normalization, Leucine-2TMS (Difference): 267732.46
Peak height after normalization, Lysine-4TMS (Difference): 360841.28
Peak height after normalization, Malic acid-3TMS (Difference): −16354.66
Peak height after normalization, Norvaline-TMS (Difference): 37744.18
Peak height after normalization, Phosphoric acid-3TMS (Difference): 15228.48
Peak height after normalization, Proline-2TMS (Difference): 52750.51
Peak height after normalization, Succinic acid-2TMS (Difference): 50806.69
Peak height after normalization, Taurine-3TMS (Difference): 9869.33
Peak height after normalization, Tyrosine-3TMS (Difference): 116635.49
Peak height after normalization, Uracil-2TMS (Difference): −3276.22
Peak height after normalization, Valine-2TMS (Difference): 267808.23
Peak height after normalization, 2-Aminobutyric acid-2TMS (Post): 43700.57
Peak height after normalization, 3-Aminoglutaric acid-3TMS (Post): 12436.04
Peak height after normalization, 3-Hydroxybutyric acid-2TMS (Post): 10891.34
Peak height after normalization, Alanine-2TMS (Post): 1268525.27
Peak height after normalization, Glycerol-3TMS (Post): 324467.91
Peak height after normalization, Glycine-3TMS (Post): 288456.14
Peak height after normalization, Isoleucine-2TMS (Post): 381173.16
Peak height after normalization, Lactic acid-2TMS (Post): 36363.66
Peak height after normalization, Leucine-2TMS (Post): 631954.96
Peak height after normalization, Lysine-4TMS (Post): 952876.14
Peak height after normalization, Malic acid-3TMS (Post): 38544.73
Peak height after normalization, Methionine-2TMS (Post): 168797.44
Peak height after normalization, Norvaline-TMS (Post): 110365.67
Peak height after normalization, Phenylalamine-2TMS (Post): 342996.16
Peak height after normalization, Phosphoric acid-3TMS (Post): 122301.92
Peak height after normalization, Proline-2TMS (Post): 151136.53
Peak height after normalization, Taurine-3TMS (Post): 24726.77
Peak height after normalization, Tryptophan-3TMS (Post): 28678.00
Peak height after normalization, Uracil-2TMS (Post): 71567.16
Peak height after normalization, Valine-2TMS (Post): 521841.20
Peak height after normalization, Xanthine-3TMS (Post): 103194.40
Peak height after normalization, 3-Aminoglutaric acid-3TMS (Pre): 3808.51
Peak height after normalization, 3-Hydroxybutyric acid-2TMS (Pre): 15499.52
Peak height after normalization, 5-Aminovaleric acid-3TMS (Pre): 28517.91
Peak height after normalization, 5-Oxoproline-2TMS (Pre): 113169.35
Peak height after normalization, #Sz,899;-3TMS (Pre): 124526.34
Peak height after normalization, Aspartic acid-3TMS (Pre): 183416.60
Peak height after normalization, Glycerol-3TMS (Pre): 283873.86
Peak height after normalization, Hypoxanthine-2TMS (Pre): 33144.25
Peak height after normalization, Isoleucine-2TMS (Pre): 175687.57
Peak height after normalization, Lactic acid-2TMS (Pre): 71969.33
Peak height after normalization, Lysine-4TMS (Pre): 592034.86
Peak height after normalization, Malic acid-3TMS (Pre): 54899.38
Peak height after normalization, Methionine-2TMS (Pre): 103825.98
Peak height after normalization, Norvaline-TMS (Pre): 72621.50
Peak height after normalization, Phenylalamine-2TMS (Pre): 208441.78
Peak height after normalization, Phosphoric acid-3TMS (Pre): 107073.44
Peak height after normalization, Succinic acid-2TMS (Pre): 263097.91
Peak height after normalization, Taurine-3TMS (Pre): 14857.44
Peak height after normalization, Tryptophan-3TMS (Pre): 16169.30
Peak height after normalization, Tyrosine-3TMS (Pre): 309190.46
Peak height after normalization, Uracil-2TMS (Pre): 74843.38
Peak height after normalization, Valine-2TMS (Pre): 254032.97
Peak height after normalization, Xanthine-3TMS (Pre): 101684.60
